The term melting point denotes the temperature of the solid-liquid transition. As usually defined, the EC50 is the concentration that produces a half-maximal response. A low value points to an effect from little substance.

The record followed here is patent US8278455B2, “5- or 6-substituted benzimidazole derivatives as inhibitors of respiratory syncytial virus replication” (Janssen Pharmaceutica N.V., priority 2003, dated 2012).

Data set [1] concerns Respiratory Syncytial Virus. Briefly: In vitro screening for activity against Respiratory Syncytial Virus (MTT tetrazolium colorimetric assay, HeLa cells). The following applies: human respiratory syncytial virus, 168 h; protection against RSV cytopathology in HeLa cells, 7 days after infection; pEC50 = −log of EC50 in molar units. It counts as cell-based. In outline: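 HeLa cells (4×10^5 cells/ml) added 2 h after ~100 TCID50 RSV to wells holding five-fold compound dilutions, in Eagle's medium with 5% FCS and 20 mM Hepes; mock-infected rows gave cytotoxicity. After 7 days at 37 °C, MTT read at 540 minus 690 nm; EC50/CC50 from dose-response, reported as pEC50 categories.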

For `Cc1cc(C)cc(NCc2ccc3nc(NCCCN4CCCCC4)n(Cc4nc(C)ccc4O)c3c2)c1` [Compound 173, 2-[6-[(3,5-dimethyl-phenylamino)-methyl]-2-(3-piperidin-1-yl-propylamino)-benzoimidazol-1-ylmethyl]-6-methyl-pyridin-3-ol], the melting point was 161 °C. In data set [1], this compound showed an EC50 of 1.58 nM.
